Measured values as given in article PMC9146228, “Bioactivity of Novel Pyrazole-Thiazolines Scaffolds against Trypanosoma cruzi: Computational Approaches and 3D Spheroid Model on Drug Discovery for Chagas Disease” (Pharmaceutics, 2022).
Read-outs that look alike come from different tables or passages of the source.

Assays:
[1] = tested on: T. cruzi cysteine proteases (trypomastigote protein extract); assay: Proteinase activity in solution (Z-FR-AMC); format: biochemical, Trypanosoma cruzi
Experimental: Trypomastigote protein extracts (Dm28c-Luc; 10^8 parasites/mL) were obtained as previously described. The cysteine protease activity of the total protein extracts (5 µg) was measured using the reaction buffer (CH3COONa 10 mM, pH 5.0 containing 1 mM DTT), in the presence of the fluorogenic peptide substrate […], CBZ-L-Phenylalanyl-l-Arginine amide (Z -FR-AMC), and serial dilutions of pyrazole-thiazolines derivatives (100–6.25 µM). The samples were incubated for 45 min at room temperature. The variation in arbitrary fluorescence units (AFU), corresponding to the enzymatic cleavage of the fluorogenic substrate, was monitored in a SpectraMax M2e reader (Molecular Devices, Sunnyvale, CA, USA) for 1 h, with excitation values at 370 nm and emission values at 460 nm. Extracts incubated with 0.5% DMSO or with cysteine protease inhibitor E-64 were used as […]. […] The inhibitory activity was expressed as percentage inhibition.

[2] = tested on: T. cruzi (Dm28c-Luc) intracellular amastigotes; assay: Trypanocidal activity against intracellular amastigotes in infected Vero cell monolayers; format: cell-based, Trypanosoma cruzi; conditions: for IC90: read-out: Trypanocidal Activity Intracellular Amastigotes IC90; for Intracellular Amastigotes SI (CC50 of Vero cells/IC50): selectivity index vs Vero cells
Experimental: The susceptibility of intracellular amastigotes to pyrazole-thiazoline derivatives (series 1 and 2) was evaluated using 24 h T. cruzi-infected Vero cell monolayers (10:1 parasite/host cell ratio). Then, the cultures were washed with PBS to remove non-internalized parasites, and 200 μL of fresh medium with a serial dilution of pyrazole-thiazoline derivatives and Bz (0.41–100 µM) was added for 72 h at 37 °C.
(§1) After 72 h of treatment, luciferin (300 µg/mL) was added to the culture, and the viability of the parasites was assessed by reading the luminescent signal on the GloMax reader (Promega Corporation, Madison, WI, USA). Controls were also performed in non-toxic concentrations of DMSO (≤ 1%). The concentration that reduces the number of viable parasites by 50% (IC50) or 90% (IC90) was calculated by linear regression. The selectivity index (SI) was calculated as CC50/IC50 for each parasite form.

[3] = tested on: T. cruzi Dm28c-Luc in Vero cell cultures; assay: Reversibility (washout) assay; format: cell-based, Trypanosoma cruzi; conditions: Trypanosoma cruzi, Vero; 100 µM, 72 h treatment then 72 h drug-free; read-out: inhibition of cell monolayer infection (intracellular amastigotes) after washout
Experimental: Then, the cultures were washed with PBS, and maintained for another 72 h at 37 °C in a drug-free medium. Trypomastigotes released in the culture supernatant were detected by transferring the culture medium to 96-well plates, followed by luciferin (300 µg/mL) addition. Viable intracellular amastigotes were also accessed by adding luciferin solution to the cell monolayers.

[4] = tested on: T. cruzi (Dm28c-Luc)-infected Vero cell spheroids; assay: 3D culture model: T. cruzi-infected Vero cell spheroids; format: cell-based, Trypanosoma cruzi
Experimental: Tridimensional Vero cell cultures were obtained as previously described. Briefly, the isolated cells (2 × 10^4/well) were cultured in 96-well U-bottom plates previously coated with 1% agarose. The spheroids were kept for 5 days at 37 °C in RPMI 1640 medium supplemented with 10% FBS for complete three-dimensional organization. Both 2D and 3D culture models were used for trypanocidal activity assays.
Vero cell spheroids were infected for 24 h with 2 × 10^5 trypomastigotes (Dm28c-Luc). […] Parasite load was assessed by the luminescence reaction after adding the luciferase substrate (luciferin 300 µg/mL). In addition, fluorescence microscopy images of untreated and treated T. cruzi-infected spheroids were acquired after fixing the cultures with 4% paraformaldehyde in PBS and 4′,6-diamidino-2-phenylindole (DAPI) staining, a DNA dye. The samples were observed under the Zeiss Axio Imager M2 fluorescence microscope (Carl Zeiss, Baden-Württemberg, Germany).

[5] = tested on: T. cruzi (Dm28c-Luc) trypomastigotes; assay: microbe, parasite or virus in culture; format: cell-based, Trypanosoma cruzi; conditions: for IC50 / IC90: Dm28c-Luc, 24 h, mean ± SD; for IC50: read-out: Trypanocidal Activity Trypomastigotes IC50; for IC90: read-out: Trypanocidal Activity Trypomastigotes IC90; for Trypomastigotes SI (CC50 of Vero cells/IC50): selectivity index vs Vero cells
Experimental: The screening assays were performed with T. cruzi clone Dm28c (TcI) genetically modified to express luciferase gene (Dm28c-Luc), kindly provided by Dr. Cristina Henriques. Trypomastigotes were isolated from T. cruzi-infected Vero cell monolayers (10:1 parasites/host cell ratio). On the 4th day post-infection (dpi), free trypomastigotes in the culture supernatant were harvested, and the number of parasites/mL was quantified in a Neubauer chamber.
The trypanocidal activity of the pyrazole-thiazoline derivatives was evaluated against trypomastigote and intracellular amastigote forms of T. cruzi (Dm28c-Luc). Tissue-derived trypomastigotes (1 × 10^6 parasites/well) were incubated with pyrazole-thiazoline derivatives and Bz in different concentrations (0.41–100 µM) for 24 h at 37 °C in a humidified atmosphere and 5% CO2. The parasite viability was determined by the addition of luciferin (300 µg/mL), followed by luminescence detection on the GloMax microplate reader (Promega Corporation, Madison, WI, USA).
as §1

[6] = Cytotoxicity in vitro assay (CellTiter-Glo); format: cell-based; conditions: African green monkey, Vero cells, mean ± SD
Experimental: Vero cells, obtained from the Rio de Janeiro Cell Bank (BCRJ code 0245), were dissociated with trypsin–EDTA solution (0.025%), and maintained in RPMI 1640 medium supplemented with 10% fetal bovine serum (FBS) at 37 °C in a humidified atmosphere of 5% CO2.
The compound toxicity was evaluated in Vero cell cultures. Briefly, Vero cells were seeded in 96-well white culture plates at a density of 1.5 × 10^4 cells/well for 24 h at 37 °C and 5% CO2. Thereafter, the cell monolayers were washed with phosphate-buffered saline (PBS) and 200 μL of fresh medium with a serial dilution of the pyrazole-thiazoline derivatives and Bz (1.9–500 µM) added. The cell viability was determined by luminescent assay using the CellTiter-Glo Kit (Promega Corporation, Madison, WI, USA) based on the ATP level. After 72 h of treatment, 20 μL of CellTiter-Glo solution was added per well, and cultures were kept for 2 min under agitation. The luminescent signal was read on the GloMax reader (Promega Corporation, Madison, WI, USA). The concentration of compounds that reduced 50% of cell viability (CC50) was calculated by linear regression. At least three independent assays were performed in duplicate.

[7] = Dm28c-Luc in Vero cells, 72 h, mean ± SD, read-out: Trypanocidal Activity Intracellular Amastigotes IC50
[8] = Trypanosoma cruzi, Vero, 72 h, Dm28c-Luc in Vero cells, 72 h, mean ± SD, read-out: Trypanocidal Activity Intracellular Amastigotes IC50
[9] = Trypanosoma cruzi, Vero, pIC50 = −log IC50, Dm28c-Luc clone, read-out: Intracellular Amastigotes pIC50 (converted)
[10] = Trypanosoma cruzi, Dm28c-Luc in Vero cells, 72 h, mean ± SD

| Compound | inhibition of cysteine protease activity ([1]; from the lowest concentration analyzed (6.25 µM)) | IC50 [2, 7] [µM] | IC50 [2, 8] [µM] | IC50 [2, 9] [µM] | IC90 [2, 10] [µM] | inhibition at 100 µM [3] [%] | DAPI staining fluorescence microscopy of infected microtissue ([4]; 100 μM) | parasite load, arbitrary luminescence unit (ALU) ([4]; 72 h, concentration higher than IC90 (100 μM in Figure 6 legend), untreated ALU = 166,678 ± 22,824) | IC50 [5] [µM] | IC50 ([5]; Trypanosoma cruzi) [µM] | IC90 ([5]; Trypanosoma cruzi) [µM] | maximum inhibition of cysteine protease activity ([1]; up to 100 µM, Z-FR-AMC substrate) [%] | Intracellular Amastigotes SI (CC50 of Vero cells/IC50) [2] | CC50 at 72 h [6] [µM] | Trypomastigotes SI (CC50 of Vero cells/IC50) [5] | melting point [°C] |
| --- | --- | --- | --- | --- | --- | --- | --- | --- | --- | --- | --- | --- | --- | --- | --- | --- |
| CC(C)C[C@H](NC(=O)[C@H]1O[C@@H]1C(=O)O)C(=O)NCCCCN=C(N)N [Compound E-64, E-64, reference compound] | more than 80% |  |  |  |  |  |  |  |  |  |  |  |  |  |  |  |
| Clc1ccc(-n2cc(C3=NCCS3)cn2)cc1Cl [Compound 2e, 2-(1-(3,4-dichlorophenyl)-1H-pyrazol-4-yl)-4,5-dihydrothiazole] |  | 7.84 ± 1 | < 10 | < 6.92 | 30.4 ± 3.7 | 69 | reduction in parasite load | 15,110 ± 1990 ALU | 1.9 ± 0.4 | ≤ 2.1 | 6.9 ± 2 | ≤ 10 |  |  |  |  |
| Fc1cccc(-n2cc(C3=NCCS3)cn2)c1 [Compound 2h, 2-(1-(3-fluorophenyl)-1H-pyrazol-4-yl)-4,5-dihydrothiazole] |  | 9.1 ± 1.7 | < 10 | ~10 | 76.3 ± 6.1 |  |  |  |  | 9.8 ± 1.5 | 36.3 ± 3.2 |  | 4.19 | 37.9 ± 4.8 | 3.8 | 92 to 94 |
| Clc1cccc(-n2cc(C3=NCCS3)cn2)c1 [Compound 2b, 2-(1-(3-chlorophenyl)-1H-pyrazol-4-yl)-4,5-dihydrothiazole] |  | 8.3 ± 1.9 | < 10 | ~10 | 31.9 ± 1.3 |  |  |  |  | 0.8 ± 0.3 | 8.8 ± 1.3 |  | 9.4 | 78.3 ± 7.7 | 100.2 | 88 to 90 |
| Clc1cc(Cl)cc(-n2cc(C3=NCCS3)cn2)c1 [Compound 2d, 2-(1-(3,5-dichlorophenyl)-1H-pyrazol-4-yl)-4,5-dihydrothiazole] |  |  | > 100 | > 100 | > 100 |  |  |  |  | > 100 | > 100 |  | <5 | > 500 | <5 | 134 to 136 |
| Fc1ccc(-n2cc(C3=NCCS3)cn2)cc1 [Compound 2g, 2-(1-(4-fluorophenyl)-1H-pyrazol-4-yl)-4,5-dihydrothiazole] |  |  | 14 ± 1.8 | 14.1 | 98 ± 3.4 |  |  |  |  | 7.9 ± 1 | 30.1 ± 2.8 |  | 4.18 | 58.6 ± 8.11 | 7.3 | 131 to 133 |
| Nc1c(C2=NCCS2)cnn1-c1ccc(Br)cc1 [Compound 1i, 2-(5-amino-1-(4-bromophenyl)-1H-pyrazol-4-yl)-4,5-dihydrothiazole] |  |  | > 100 | > 100 | > 100 |  |  |  |  | 49.3 ± 4.7 | > 100 |  | <5 | > 500 | >10.1 | 282 to 284 |
| Nc1c(C2=NCCS2)cnn1-c1ccc(Cl)cc1 [Compound 1f, 2-(5-amino-1-(4-chlorophenyl)-1H-pyrazol-4-yl)-4,5-dihydrothiazole] |  |  | > 100 | > 100 | > 100 |  |  |  |  | 88.3 ± 7.1 | > 100 |  |  | > 500 |  | 283 to 285 |
| Nc1c(C2=NCCS2)cnn1-c1ccc(Cl)cc1Cl [Compound 1c, 2-(5-amino-1-(2,4-dichlorophenyl)-1H-pyrazol-4-yl)-4,5-dihydrothiazole] |  |  | > 100 | > 100 | > 100 |  |  |  |  | > 100 | > 100 |  | <5 | > 50 | <5 | 209 to 212 |
| Nc1c(C2=NCCS2)cnn1-c1cccc(Cl)c1Cl [Compound 1l, 2-(5-amino-1-(2,3-dichlorophenyl)-1H-pyrazol-4-yl)-4,5-dihydrothiazole] |  |  | 11.1 ± 2 | 11.2 | > 100 |  |  |  |  | > 100 | > 100 |  | >44.9 | > 500 | <5 | 188 to 190 |
